# Test results from the NIST ThermoML archive (doi:10.1021/je201010s).
# Numbers after ± are expanded uncertainties.
# Legend:
# [1] = refractive index (Na D-line) (dimensionless); settings: 101.33 kPa, Liquid, Standard Abbe refractometry
# [2] = 101 kPa, Liquid, Vibrating tube method
# [3] = wn = mass fraction of the nth substance listed; settings: 101 kPa, Liquid, Vibrating tube method
# [4] = refractive index (Na D-line) (dimensionless); wn = mass fraction of the nth substance listed; settings: 101 kPa, Liquid, Standard Abbe refractometry
structure (smiles),measurement,setting,value
CCCCn1cc[n+](C)c1.F[B-](F)(F)F [1-butyl-3-methylimidazolium tetrafluoroborate],refractive index,[1]; 298.15 K,1.422 ± 0.0013
same,refractive index,[1]; 323.15 K,1.4155 ± 0.002
same,mass density,[2]; 298.15 K,1202.87 ± 1.8 kg/m3
same,mass density,[2]; 323.15 K,1185.11 ± 6 kg/m3
CCCCn1cc[n+](C)c1.F[B-](F)(F)F [1-butyl-3-methylimidazolium tetrafluoroborate] + CC(C)O,mass density,"[3]; 323.15 K, w2 = 0",1185.11 ± 6 kg/m3
same,mass density,"[3]; 323.15 K, w2 = 0.0089",1180.38 ± 6 kg/m3
same,mass density,"[3]; 323.15 K, w2 = 0.0287",1170.07 ± 6 kg/m3
same,mass density,"[3]; 323.15 K, w2 = 0.0624",1147.36 ± 6 kg/m3
same,mass density,"[3]; 323.15 K, w2 = 0.1053",1122.14 ± 6 kg/m3
same,mass density,"[3]; 323.15 K, w2 = 0.1649",1091.32 ± 6 kg/m3
same,mass density,"[3]; 323.15 K, w2 = 0.2183",1061.8 ± 6 kg/m3
same,mass density,"[3]; 323.15 K, w2 = 0.2719",1031.58 ± 6 kg/m3
same,mass density,"[3]; 323.15 K, w2 = 0.324",1012 ± 6 kg/m3
same,mass density,"[3]; 323.15 K, w2 = 0.4108",973.34 ± 6 kg/m3
same,mass density,"[3]; 323.15 K, w2 = 0.5167",927.14 ± 6 kg/m3
same,mass density,"[3]; 323.15 K, w2 = 0.5965",901.85 ± 6 kg/m3
same,mass density,"[3]; 323.15 K, w2 = 0.6194",888.84 ± 6 kg/m3
same,mass density,"[3]; 323.15 K, w2 = 0.7697",835.46 ± 6 kg/m3
same,mass density,"[3]; 323.15 K, w2 = 0.8372",809.26 ± 6 kg/m3
same,mass density,"[3]; 323.15 K, w2 = 0.9344",778.75 ± 6 kg/m3
same,refractive index,"[4]; 323.15 K, w2 = 0",1.4155 ± 0.002
same,refractive index,"[4]; 323.15 K, w2 = 0.0089",1.4152 ± 0.002
same,refractive index,"[4]; 323.15 K, w2 = 0.0287",1.4143 ± 0.002
same,refractive index,"[4]; 323.15 K, w2 = 0.0624",1.4122 ± 0.002
same,refractive index,"[4]; 323.15 K, w2 = 0.1053",1.4106 ± 0.002
same,refractive index,"[4]; 323.15 K, w2 = 0.1649",1.4077 ± 0.002
same,refractive index,"[4]; 323.15 K, w2 = 0.2183",1.4071 ± 0.002
same,refractive index,"[4]; 323.15 K, w2 = 0.2719",1.406 ± 0.002
same,refractive index,"[4]; 323.15 K, w2 = 0.324",1.403 ± 0.002
same,refractive index,"[4]; 323.15 K, w2 = 0.4108",1.3989 ± 0.002
same,refractive index,"[4]; 323.15 K, w2 = 0.5167",1.3948 ± 0.002
same,refractive index,"[4]; 323.15 K, w2 = 0.5965",1.391 ± 0.002
same,refractive index,"[4]; 323.15 K, w2 = 0.6194",1.3904 ± 0.002
same,refractive index,"[4]; 323.15 K, w2 = 0.7697",1.3817 ± 0.002
same,refractive index,"[4]; 323.15 K, w2 = 0.8372",1.3749 ± 0.002
same,refractive index,"[4]; 323.15 K, w2 = 0.9344",1.3668 ± 0.002
CCCCn1cc[n+](C)c1.F[B-](F)(F)F [1-butyl-3-methylimidazolium tetrafluoroborate] + O,mass density,"[3]; 298.15 K, w2 = 0",1202.87 ± 1.8 kg/m3
same,mass density,"[3]; 298.15 K, w2 = 0.0098",1199.53 ± 1.8 kg/m3
same,mass density,"[3]; 298.15 K, w2 = 0.0167",1196.97 ± 1.8 kg/m3
same,mass density,"[3]; 298.15 K, w2 = 0.0205",1195.79 ± 1.8 kg/m3
same,mass density,"[3]; 298.15 K, w2 = 0.029",1193.14 ± 1.8 kg/m3
same,mass density,"[3]; 298.15 K, w2 = 0.0396",1189.89 ± 1.8 kg/m3
same,mass density,"[3]; 298.15 K, w2 = 0.0585",1184.23 ± 1.8 kg/m3
same,mass density,"[3]; 298.15 K, w2 = 0.0982",1173.48 ± 1.8 kg/m3
same,mass density,"[3]; 298.15 K, w2 = 0.154",1159.29 ± 1.8 kg/m3
same,mass density,"[3]; 298.15 K, w2 = 0.2046",1147.24 ± 1.8 kg/m3
same,mass density,"[3]; 298.15 K, w2 = 0.2517",1136.64 ± 1.8 kg/m3
same,mass density,"[3]; 298.15 K, w2 = 0.3043",1125.12 ± 1.8 kg/m3
same,mass density,"[3]; 298.15 K, w2 = 0.3966",1106.01 ± 1.8 kg/m3
same,mass density,"[3]; 298.15 K, w2 = 0.5061",1084.29 ± 1.8 kg/m3
same,mass density,"[3]; 298.15 K, w2 = 0.6986",1048.69 ± 1.8 kg/m3
same,mass density,"[3]; 298.15 K, w2 = 0.8897",1015.75 ± 1.8 kg/m3
same,refractive index,"[4]; 298.15 K, w2 = 0",1.422 ± 0.0013
same,refractive index,"[4]; 298.15 K, w2 = 0.0098",1.4206 ± 0.0013
same,refractive index,"[4]; 298.15 K, w2 = 0.0167",1.4194 ± 0.0013
same,refractive index,"[4]; 298.15 K, w2 = 0.0205",1.4191 ± 0.0013
same,refractive index,"[4]; 298.15 K, w2 = 0.029",1.418 ± 0.0013
same,refractive index,"[4]; 298.15 K, w2 = 0.0396",1.4169 ± 0.0013
same,refractive index,"[4]; 298.15 K, w2 = 0.0585",1.4141 ± 0.0013
same,refractive index,"[4]; 298.15 K, w2 = 0.0982",1.4094 ± 0.0013
same,refractive index,"[4]; 298.15 K, w2 = 0.154",1.4033 ± 0.0013
same,refractive index,"[4]; 298.15 K, w2 = 0.2046",1.398 ± 0.0013
same,refractive index,"[4]; 298.15 K, w2 = 0.2517",1.3934 ± 0.0012
same,refractive index,"[4]; 298.15 K, w2 = 0.3043",1.3883 ± 0.0012
same,refractive index,"[4]; 298.15 K, w2 = 0.3966",1.3801 ± 0.0012
same,refractive index,"[4]; 298.15 K, w2 = 0.5061",1.3705 ± 0.0012
same,refractive index,"[4]; 298.15 K, w2 = 0.6986",1.3549 ± 0.0012
same,refractive index,"[4]; 298.15 K, w2 = 0.8897",1.3406 ± 0.0012
CC(C)O [propan-2-ol],refractive index,[1]; 298.15 K,1.3751 ± 0.0012
same,refractive index,[1]; 323.15 K,1.3604 ± 0.002
same,mass density,[2]; 298.15 K,780.82 ± 1 kg/m3
same,mass density,[2]; 323.15 K,758.67 ± 6 kg/m3
CC(C)O [propan-2-ol] + CCCCn1cc[n+](C)c1.F[B-](F)(F)F,mass density,"[3]; 323.15 K, w1 = 1",758.67 ± 6 kg/m3
same,refractive index,"[4]; 323.15 K, w1 = 1",1.3604 ± 0.002
CC(C)O [propan-2-ol] + O,mass density,"[3]; 298.15 K, w1 = 0.0915",982.05 ± 1 kg/m3
same,mass density,"[3]; 298.15 K, w1 = 0.2131",960.29 ± 1 kg/m3
same,mass density,"[3]; 298.15 K, w1 = 0.3299",936.93 ± 1 kg/m3
same,mass density,"[3]; 298.15 K, w1 = 0.4795",906.69 ± 1 kg/m3
same,mass density,"[3]; 298.15 K, w1 = 0.5009",901.31 ± 1 kg/m3
same,mass density,"[3]; 298.15 K, w1 = 0.618",874.45 ± 1 kg/m3
same,mass density,"[3]; 298.15 K, w1 = 0.684",858.73 ± 1 kg/m3
same,mass density,"[3]; 298.15 K, w1 = 0.7874",834.01 ± 1 kg/m3
same,mass density,"[3]; 298.15 K, w1 = 0.8788",811.99 ± 1 kg/m3
same,mass density,"[3]; 298.15 K, w1 = 0.8976",807.44 ± 1 kg/m3
same,mass density,"[3]; 298.15 K, w1 = 0.9154",803.01 ± 1 kg/m3
same,mass density,"[3]; 298.15 K, w1 = 0.9311",799.05 ± 1 kg/m3
same,mass density,"[3]; 298.15 K, w1 = 0.9502",794.22 ± 1 kg/m3
same,mass density,"[3]; 298.15 K, w1 = 0.9752",787.71 ± 1 kg/m3
same,mass density,"[3]; 298.15 K, w1 = 0.9895",783.8 ± 1 kg/m3
same,mass density,"[3]; 298.15 K, w1 = 1",780.82 ± 1 kg/m3
same,refractive index,"[4]; 298.15 K, w1 = 0.048",1.3365 ± 0.0012
same,refractive index,"[4]; 298.15 K, w1 = 0.0987",1.3412 ± 0.0012
same,refractive index,"[4]; 298.15 K, w1 = 0.1446",1.3458 ± 0.0012
same,refractive index,"[4]; 298.15 K, w1 = 0.2009",1.3502 ± 0.0012
same,refractive index,"[4]; 298.15 K, w1 = 0.241",1.3536 ± 0.0012
same,refractive index,"[4]; 298.15 K, w1 = 0.2951",1.3569 ± 0.0012
same,refractive index,"[4]; 298.15 K, w1 = 0.3387",1.3597 ± 0.0012
same,refractive index,"[4]; 298.15 K, w1 = 0.3921",1.3622 ± 0.0012
same,refractive index,"[4]; 298.15 K, w1 = 0.4412",1.3645 ± 0.0012
same,refractive index,"[4]; 298.15 K, w1 = 0.4805",1.366 ± 0.0012
same,refractive index,"[4]; 298.15 K, w1 = 0.5386",1.3681 ± 0.0012
same,refractive index,"[4]; 298.15 K, w1 = 0.6205",1.3707 ± 0.0012
same,refractive index,"[4]; 298.15 K, w1 = 0.6337",1.3711 ± 0.0012
same,refractive index,"[4]; 298.15 K, w1 = 0.6782",1.3722 ± 0.0012
same,refractive index,"[4]; 298.15 K, w1 = 0.7452",1.3737 ± 0.0012
same,refractive index,"[4]; 298.15 K, w1 = 0.7861",1.3744 ± 0.0012
same,refractive index,"[4]; 298.15 K, w1 = 0.8541",1.3752 ± 0.0012
same,refractive index,"[4]; 298.15 K, w1 = 0.8959",1.3756 ± 0.0012
same,refractive index,"[4]; 298.15 K, w1 = 0.9492",1.3756 ± 0.0012
same,refractive index,"[4]; 298.15 K, w1 = 1",1.3751 ± 0.0012
O [water],refractive index,[1]; 298.15 K,1.3325 ± 0.0012
O [water] + CC(C)O,refractive index,"[4]; 298.15 K, w2 = 0",1.3325 ± 0.0012
O [water] + CCCCn1cc[n+](C)c1.F[B-](F)(F)F,refractive index,"[4]; 298.15 K, w1 = 1",1.3325 ± 0.0012
